Drawing on patent US20080193986A1, “Mutant strain of Amycolatopsis orientalis and process for preparing vancomycin hydrochloride” (priority 2007, published 2008), this text covers antimicrobial activity and solubility of powder for one compound.

Molecules are shown by their SMILES. Where a name gives a salt, the structure may show the parent alone.

The nature of data set [1]: Antimicrobial activity by analysis based on U.S. Pharmacopeia 28. The settings on record: dried vancomycin hydrochloride of Example 9. The procedure:
(§1) Next, chilled absolute ethanol was added to the concentrate drop by drop until vancomycin hydrochloride was crystallized, the slurry was left in refrigerator for 12 hours to accelerate the crystallization, and then the slurry was filtered off. The filtered precipitate was dried in a vacuum dryer at 40° C. […] The analytical results are illustrated in FIG. 3 and FIG. 4.

A short description of data set [2]: Solubility of dried powder. It counts as physicochemical. The note with it: dried vancomycin hydrochloride of Example 9. The procedure: as §1

As to `CN[C@H](CC(C)C)C(=O)N[C@H]1C(=O)N[C@@H](CC(N)=O)C(=O)N[C@H]2C(=O)N[C@H]3C(=O)N[C@H](C(=O)N[C@H](C(=O)O)c4cc(O)cc(O)c4-c4cc3ccc4O)[C@H](O)c3ccc(c(Cl)c3)Oc3cc2cc(c3O[C@@H]2O[C@H](CO)[C@@H](O)[C@H](O)[C@H]2O[C@H]2C[C@](C)(N)[C@H](O)[C@H](C)O2)Oc2ccc(cc2Cl)[C@H]1O` [vancomycin hydrochloride], in data set [1], the antimicrobial activity is recorded as 1050 U. Besides, the solubility of powder result in data set [2] is on record as “freely soluble”.
